Assay results published in ChEMBL document CHEMBL4033712, “Synthesis and biological evaluation of new C-12(α/β)-(N-) sulfamoyl-phenylamino-14-deoxy-andrographolide derivatives as potent anti-cancer agents” (Bioorg Med Chem Lett, 2017).

Columns and labels:
[1] = Growth inhibition of human NCI60 cells after 48 hrs by sulforhodamine B assay; type: functional; settings: NCI60, 48 h
[2] = (§1) Growth inhibition of human NHDF after 72 hrs by CellTiter-Glo luminescent cell viability assay; type: cell-based; settings: NHDF cells
NHDF = experiment: as §1; type: cell-based; settings: nhdf, 72 h

Row | SMILES | GI50 [1] [µM] | TGI [1] [µM] | CC50 ([1]; read-out: LC50 (the source's name)) [µM] | GI50 at 72 h [2] [µM] | LC50 (NHDF) [µM]
1 | C=C1CC[C@@H]2[C@](C)(CO)[C@H](O)CC[C@@]2(C)[C@@H]1C/C=C1/C(=O)OC[C@H]1O [ANDROGRAPHOLIDE] | 16.2 | 49.7 | 80.9 |  | 
2 | CN(C)C/C=C/C(=O)Nc1ccc(C(=O)Nc2ccc(Nc3ncc(Cl)c(-c4c[nH]c5ccccc45)n3)cc2)cc1 |  |  |  | 0.0466 | 0.250743
